Assays:
[1] = molecular target: human Class I PI3 kinase δ (Homo sapiens (Human), UniProt O00329); test: PI3-Kinase Promega ADP-Glo Max assay, δ isoform; format: biochemical; conditions: 20 nM kinase, 3 mM ATP, 500 uM diC8-PtdInsP; read-out: Promega δ PI3K IC50
[2] = molecular target: human Class I PI3 kinase β (Homo sapiens (Human), UniProt P42338); test: PI3-Kinase Promega ADP-Glo Max assay, β isoform; format: biochemical; conditions: 40 nM kinase, 3 mM ATP, 500 uM diC8-PtdInsP; read-out: Promega β PI3K IC50
human Class I PI3 kinase β, sequence (P42338 whole entry, looked up, canonical isoform): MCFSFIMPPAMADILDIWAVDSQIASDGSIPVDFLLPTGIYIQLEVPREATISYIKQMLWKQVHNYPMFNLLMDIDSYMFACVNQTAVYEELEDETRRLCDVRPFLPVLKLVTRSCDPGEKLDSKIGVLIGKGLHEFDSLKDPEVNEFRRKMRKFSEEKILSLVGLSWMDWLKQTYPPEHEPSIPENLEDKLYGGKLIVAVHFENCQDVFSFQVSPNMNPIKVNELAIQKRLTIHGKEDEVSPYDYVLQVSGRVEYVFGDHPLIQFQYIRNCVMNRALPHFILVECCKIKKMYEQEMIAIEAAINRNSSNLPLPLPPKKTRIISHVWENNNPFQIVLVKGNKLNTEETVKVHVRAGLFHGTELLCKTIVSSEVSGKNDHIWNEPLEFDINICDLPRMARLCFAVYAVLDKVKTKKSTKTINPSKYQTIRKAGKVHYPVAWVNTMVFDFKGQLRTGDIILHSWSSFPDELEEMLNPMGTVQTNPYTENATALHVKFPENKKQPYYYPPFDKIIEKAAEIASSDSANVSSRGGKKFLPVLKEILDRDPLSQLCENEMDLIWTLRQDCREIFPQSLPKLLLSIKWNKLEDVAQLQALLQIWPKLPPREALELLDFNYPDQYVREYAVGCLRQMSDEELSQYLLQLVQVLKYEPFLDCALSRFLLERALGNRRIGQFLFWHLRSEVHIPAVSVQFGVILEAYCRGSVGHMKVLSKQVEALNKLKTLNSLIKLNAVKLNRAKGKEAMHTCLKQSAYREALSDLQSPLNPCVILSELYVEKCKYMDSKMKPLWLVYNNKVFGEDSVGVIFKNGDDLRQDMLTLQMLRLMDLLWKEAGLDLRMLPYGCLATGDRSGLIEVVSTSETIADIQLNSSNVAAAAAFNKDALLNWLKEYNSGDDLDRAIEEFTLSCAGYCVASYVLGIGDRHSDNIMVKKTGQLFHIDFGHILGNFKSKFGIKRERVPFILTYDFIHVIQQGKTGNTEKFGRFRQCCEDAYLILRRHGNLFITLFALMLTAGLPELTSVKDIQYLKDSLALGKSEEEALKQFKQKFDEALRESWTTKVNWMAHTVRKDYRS
human Class I PI3 kinase β, sequence (P27986 whole entry partner, looked up, canonical isoform): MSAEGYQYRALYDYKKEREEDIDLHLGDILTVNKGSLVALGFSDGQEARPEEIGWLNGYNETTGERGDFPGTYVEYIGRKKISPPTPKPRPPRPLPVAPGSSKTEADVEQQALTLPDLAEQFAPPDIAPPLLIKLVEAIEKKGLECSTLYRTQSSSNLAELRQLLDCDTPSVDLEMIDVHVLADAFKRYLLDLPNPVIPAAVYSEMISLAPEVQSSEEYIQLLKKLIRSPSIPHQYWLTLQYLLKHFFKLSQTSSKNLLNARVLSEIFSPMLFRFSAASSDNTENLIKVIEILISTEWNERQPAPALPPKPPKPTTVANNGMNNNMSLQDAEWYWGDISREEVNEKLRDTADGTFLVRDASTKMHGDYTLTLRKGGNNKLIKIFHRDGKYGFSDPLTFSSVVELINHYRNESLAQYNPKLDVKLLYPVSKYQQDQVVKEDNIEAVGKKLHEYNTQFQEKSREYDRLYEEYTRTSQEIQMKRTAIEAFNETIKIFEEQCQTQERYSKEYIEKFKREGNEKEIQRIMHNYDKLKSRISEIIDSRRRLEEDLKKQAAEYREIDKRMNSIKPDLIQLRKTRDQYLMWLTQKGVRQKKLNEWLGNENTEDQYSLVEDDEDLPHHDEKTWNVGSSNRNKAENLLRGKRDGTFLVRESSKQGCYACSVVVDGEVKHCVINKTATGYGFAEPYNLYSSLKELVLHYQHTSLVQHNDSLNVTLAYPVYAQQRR

[3] = molecular target: p110 δ (RAJI cells) (Homo sapiens (Human), UniProt O00329); test: PI3K-δ selective cellular assay: phospho-AKT in anti-human IgM stimulated RAJI cells; format: cell-based; conditions: serum-starved RAJI cells stimulated with anti-human IgM
Text: A compound's ability in selectively inhibiting PI3K-δ can be assessed using RAJI cells, i.e., B lymphocyte cells derived from lymphoma patients. Briefly, serum-starved RAJI cells are stimulated with anti-human IgM, thereby causing signaling through the B-cell receptors, as described in, for example, He et al., Leukemia Research (2009) 33: 798-802. B-cell receptor signaling is important for the activation, differentiation, and survival of B cells and certain B-cell derived cancers. Reduction of phospho-AKT is indicative of compounds that may inhibit B-cell proliferation and function in certain diseases. […] Certain compounds provided herein were tested in RAJI cell model using procedures as described above.

[4] = molecular target: p110 γ (RAW264.7 cells) (Mus musculus (Mouse), UniProt Q9JHG7); test: PI3K-γ selective cellular assay: phospho-AKT in C5a stimulated RAW264.7 macrophages; format: cell-based; conditions: serum-starved RAW264.7 cells stimulated with C5a
p110 γ (RAW264.7 cells), sequence (Q9JHG7 whole entry): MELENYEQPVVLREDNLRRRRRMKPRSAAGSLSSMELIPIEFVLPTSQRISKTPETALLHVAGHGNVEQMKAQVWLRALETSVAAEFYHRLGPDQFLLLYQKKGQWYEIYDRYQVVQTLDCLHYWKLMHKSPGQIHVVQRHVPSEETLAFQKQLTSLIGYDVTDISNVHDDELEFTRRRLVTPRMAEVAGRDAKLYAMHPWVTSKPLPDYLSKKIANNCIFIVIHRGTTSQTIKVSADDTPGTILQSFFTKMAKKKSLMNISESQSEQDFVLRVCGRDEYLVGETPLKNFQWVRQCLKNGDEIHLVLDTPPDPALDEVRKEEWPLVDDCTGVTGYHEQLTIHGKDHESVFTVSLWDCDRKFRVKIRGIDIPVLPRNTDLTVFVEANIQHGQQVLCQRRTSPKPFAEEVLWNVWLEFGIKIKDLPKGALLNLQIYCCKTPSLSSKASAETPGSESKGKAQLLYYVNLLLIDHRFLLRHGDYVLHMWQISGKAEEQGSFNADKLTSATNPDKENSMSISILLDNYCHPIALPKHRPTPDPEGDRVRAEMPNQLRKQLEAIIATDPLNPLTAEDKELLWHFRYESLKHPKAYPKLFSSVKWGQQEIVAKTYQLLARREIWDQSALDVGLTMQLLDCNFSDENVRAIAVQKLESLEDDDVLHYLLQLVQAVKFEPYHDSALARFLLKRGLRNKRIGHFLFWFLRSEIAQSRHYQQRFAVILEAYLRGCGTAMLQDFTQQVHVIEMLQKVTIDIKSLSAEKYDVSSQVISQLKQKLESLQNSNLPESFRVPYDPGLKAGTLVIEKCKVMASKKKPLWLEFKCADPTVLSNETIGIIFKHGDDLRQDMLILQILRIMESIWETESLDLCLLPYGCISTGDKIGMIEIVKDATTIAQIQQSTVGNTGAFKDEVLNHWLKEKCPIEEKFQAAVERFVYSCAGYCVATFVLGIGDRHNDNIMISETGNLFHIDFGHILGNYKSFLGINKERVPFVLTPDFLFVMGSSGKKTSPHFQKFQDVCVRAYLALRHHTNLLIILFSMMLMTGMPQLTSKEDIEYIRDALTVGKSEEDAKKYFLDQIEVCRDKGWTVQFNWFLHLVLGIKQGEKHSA
Experimental: Certain compounds provided herein were tested in RAW 264.7 cell model using procedures as described above.

[5] = molecular target: human Class I PI3 kinase γ (Homo sapiens (Human), UniProt P48736); test: PI3-Kinase Promega ADP-Glo Max assay, γ isoform; format: biochemical; conditions: 40 nM kinase, 3 mM ATP, 500 uM diC8-PtdInsP; read-out: Promega γ PI3K IC50
human Class I PI3 kinase γ, sequence (P48736 whole entry, canonical isoform): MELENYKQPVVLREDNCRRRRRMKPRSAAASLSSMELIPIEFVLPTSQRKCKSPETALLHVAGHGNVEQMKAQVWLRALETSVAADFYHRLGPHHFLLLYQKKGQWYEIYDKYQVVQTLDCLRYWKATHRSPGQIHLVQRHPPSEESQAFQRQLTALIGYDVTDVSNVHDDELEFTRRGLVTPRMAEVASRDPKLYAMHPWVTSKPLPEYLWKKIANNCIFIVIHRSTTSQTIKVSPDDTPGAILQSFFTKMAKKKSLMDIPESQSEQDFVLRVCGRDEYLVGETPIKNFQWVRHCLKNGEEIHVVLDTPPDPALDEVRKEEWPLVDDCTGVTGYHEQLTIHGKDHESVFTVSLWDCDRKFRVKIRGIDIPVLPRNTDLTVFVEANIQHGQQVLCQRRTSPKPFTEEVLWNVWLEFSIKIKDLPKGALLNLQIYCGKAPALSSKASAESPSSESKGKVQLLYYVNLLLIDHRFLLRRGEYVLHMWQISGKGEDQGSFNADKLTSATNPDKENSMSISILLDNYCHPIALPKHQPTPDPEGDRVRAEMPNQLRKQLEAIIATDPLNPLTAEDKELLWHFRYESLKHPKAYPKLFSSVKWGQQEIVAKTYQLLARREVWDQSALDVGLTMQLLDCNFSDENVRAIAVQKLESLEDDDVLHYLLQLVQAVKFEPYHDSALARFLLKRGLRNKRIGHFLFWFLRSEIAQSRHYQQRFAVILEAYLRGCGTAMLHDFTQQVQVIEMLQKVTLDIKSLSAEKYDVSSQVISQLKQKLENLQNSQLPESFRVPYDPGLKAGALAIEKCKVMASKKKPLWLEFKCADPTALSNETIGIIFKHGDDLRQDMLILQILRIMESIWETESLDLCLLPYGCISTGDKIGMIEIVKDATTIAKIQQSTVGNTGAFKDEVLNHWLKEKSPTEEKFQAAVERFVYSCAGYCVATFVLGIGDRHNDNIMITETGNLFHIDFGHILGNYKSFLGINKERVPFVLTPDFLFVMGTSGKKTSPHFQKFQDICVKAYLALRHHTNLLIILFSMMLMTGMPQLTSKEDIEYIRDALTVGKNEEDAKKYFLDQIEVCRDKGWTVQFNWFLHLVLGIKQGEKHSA
Experimental: Promega ADP-Glo Max assay kit (Cat. No. V7002) was utilized to determine IC50 values for α, β, δ and γ isoforms of human Class I PI3 kinases (Millipore). Samples of kinase (20 nM α or δ, 40 nM β or γ isoform) were incubated with compound for 15 minutes at room temperature in reaction buffer (15 mM HEPES pH 7.4, 20 mM NaCl, 1 mM EGTA, 0.02% Tween 20, 10 mM MgCl2, 0.2 mg/mL bovine-γ-globulins) followed by addition of ATP/diC8-PtdInsP mixture to give final concentrations of 3 mM ATP and 500 uM diC8-PtdInsP. Reactions were incubated at room temperature for 2 hours followed by addition of 25 uL of stop solution. After a 40-minute incubation at room temperature, 50 uL of Promega detection mix was added followed by incubation for 1 hour at room temperature. Plates were then read on Envision plate reader in luminescence mode. Data was converted to % inhibition using the following equation below:
[formula] where S is the sample luminescence, Pos is a positive control without added PI3K, Neg is the negative control without added compound. Data was then plotted as % inhibition vs compound concentration.
Certain compounds provided herein were tested in PI3-Kinase Promega Assay using procedures as described above to determine IC50 values for α, β, δ and/or γ isoforms.

[6] = molecular target: human Class I PI3 kinase α (Homo sapiens (Human), UniProt P42336); test: PI3-Kinase Promega ADP-Glo Max assay, α isoform; format: biochemical; conditions: 20 nM kinase, 3 mM ATP, 500 uM diC8-PtdInsP; read-out: Promega α PI3K IC50
human Class I PI3 kinase α, sequence (P42336 whole entry, canonical isoform): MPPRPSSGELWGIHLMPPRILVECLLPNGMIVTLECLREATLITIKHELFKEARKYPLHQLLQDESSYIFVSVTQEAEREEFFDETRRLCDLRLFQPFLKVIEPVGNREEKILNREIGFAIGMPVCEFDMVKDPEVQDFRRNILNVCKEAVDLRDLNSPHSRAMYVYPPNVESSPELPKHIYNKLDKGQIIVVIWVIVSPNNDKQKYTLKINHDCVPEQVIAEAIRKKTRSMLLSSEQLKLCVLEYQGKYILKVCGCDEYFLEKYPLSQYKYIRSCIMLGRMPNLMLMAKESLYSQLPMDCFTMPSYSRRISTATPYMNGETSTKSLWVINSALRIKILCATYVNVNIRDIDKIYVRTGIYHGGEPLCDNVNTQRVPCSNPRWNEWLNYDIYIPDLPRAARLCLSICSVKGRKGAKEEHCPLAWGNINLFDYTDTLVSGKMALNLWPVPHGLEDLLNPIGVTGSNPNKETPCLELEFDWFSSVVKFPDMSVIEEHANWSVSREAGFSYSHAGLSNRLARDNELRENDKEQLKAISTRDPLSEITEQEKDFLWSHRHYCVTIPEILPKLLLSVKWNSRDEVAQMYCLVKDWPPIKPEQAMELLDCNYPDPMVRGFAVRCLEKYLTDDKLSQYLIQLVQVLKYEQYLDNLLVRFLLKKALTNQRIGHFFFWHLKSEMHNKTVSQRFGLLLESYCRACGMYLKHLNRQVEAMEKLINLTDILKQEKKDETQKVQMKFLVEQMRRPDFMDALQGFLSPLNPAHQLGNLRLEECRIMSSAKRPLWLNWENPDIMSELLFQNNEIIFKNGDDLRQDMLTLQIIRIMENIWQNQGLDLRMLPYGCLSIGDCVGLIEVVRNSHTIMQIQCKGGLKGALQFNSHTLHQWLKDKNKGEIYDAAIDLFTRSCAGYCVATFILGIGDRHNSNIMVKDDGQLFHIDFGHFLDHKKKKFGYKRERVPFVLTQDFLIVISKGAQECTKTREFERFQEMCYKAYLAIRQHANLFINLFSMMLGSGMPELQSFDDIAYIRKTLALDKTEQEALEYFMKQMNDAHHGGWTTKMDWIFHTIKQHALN
human Class I PI3 kinase α, sequence (P27986 whole entry partner, canonical isoform): as the sequence (P27986 whole entry partner, looked up, canonical isoform) above

IC50 [1] | IC50 [2] | IC50 [3] | IC50 [4] | IC50 [5] | IC50 [6] | SMILES
1000 to 10000 nM | 1000 to 10000 nM | 1000 to 10000 nM | 10 to 100 nM | 500 to 1000 nM | 1 to 10 µM | C[C@H](NC(=O)c1c(N)nn2cccnc12)c1cc2cccc(OCc3cnn(C)c3)c2c(=O)n1-c1ccccc1 [Compound 67]
500 to 1000 nM | 100 to 500 nM | 1 to 10 nM | 1 to 10 nM | 10 to 100 nM | 1 to 10 µM | C[C@H](NC(=O)c1c(N)nn2cccnc12)c1cc2cccc(Cl)c2c(=O)n1-c1ccccc1O [Compound 68]
100 to 500 nM | 10 to 100 nM | 1 to 10 nM | 10 to 100 nM | 10 to 100 nM | 1 to 10 µM | C[C@H](NC(=O)c1c(N)nn2cccnc12)c1cc2cccc(Cl)c2c(=O)n1-c1cccc(O)c1 [Compound 69]
100 to 500 nM | 1 to 10 nM | 1 to 10 nM | 10 to 100 nM | 10 to 100 nM | 1 to 10 µM | C[C@H](NC(=O)c1c(N)nn2cccnc12)c1cc2cccc(Cl)c2c(=O)n1-c1ccc(O)cc1 [Compound 70]
1000 to 10000 nM | 500 to 1000 nM | 10 to 100 nM | 10 to 100 nM | 1000 to 10000 nM | 1 to 10 µM | C[C@H](NC(=O)c1c(N)nn2cccnc12)c1cc2cccc(Cl)c2c(=O)n1C1CCC1 [Compound 71]
1000 to 10000 nM | 100 to 500 nM | 10 to 100 nM | 100 to 500 nM | 1000 to 10000 nM | 1 to 10 µM | C[C@H](NC(=O)c1c(N)nn2cccnc12)c1cc2cccc(Cl)c2c(=O)n1C1CC(NS(C)(=O)=O)C1 (stereo partly drawn) [Compound 72]
500 to 1000 nM | 100 to 500 nM | 10 to 100 nM | 1 to 10 nM | 100 to 500 nM | 1 to 10 µM | Cc1ccccc1-n1c([C@H](C)NC(=O)c2c(N)nn3cccnc23)cc2cccc(Cl)c2c1=O [Compound 73]
500 to 1000 nM | 1000 to 10000 nM | 10 to 100 nM | 10 to 100 nM | 100 to 500 nM | 1 to 10 µM | Cc1cccc(-n2c([C@H](C)NC(=O)c3c(N)nn4cccnc34)cc3cccc(Cl)c3c2=O)c1 [Compound 74]
1000 to 10000 nM | 1000 to 10000 nM | 10 to 100 nM | 10 to 100 nM | 100 to 500 nM | 1 to 10 µM | Cc1ccc(-n2c([C@H](C)NC(=O)c3c(N)nn4cccnc34)cc3cccc(Cl)c3c2=O)cc1 [Compound 75]
1000 to 10000 nM | 500 to 1000 nM | 100 to 500 nM | 10 to 100 nM | 100 to 500 nM | 1 to 10 µM | C[C@H](NC(=O)c1c(N)nn2cccnc12)c1cc2cccc(Cl)c2c(=O)n1-c1cccnc1 [Compound 76]
1000 to 10000 nM | 500 to 1000 nM | 100 to 500 nM | 100 to 500 nM | 500 to 1000 nM | 1 to 10 µM | C[C@H](NC(=O)c1c(N)nn2cccnc12)c1cc2cccc(Cl)c2c(=O)n1-c1cccc(S(C)(=O)=O)c1 [Compound 77]
1000 to 10000 nM | 1000 to 10000 nM | 100 to 500 nM | 10 to 100 nM | 100 to 500 nM | 1 to 10 µM | C[C@H](NC(=O)c1c(N)nn2cccnc12)c1cc2cccc(Cl)c2c(=O)n1-c1ccccc1NS(C)(=O)=O [Compound 78]
500 to 1000 nM | 100 to 500 nM | 10 to 100 nM | 100 to 500 nM | 100 to 500 nM | 1 to 10 µM | C[C@H](NC(=O)c1c(N)nn2cccnc12)c1cc2cccc(Cl)c2c(=O)n1-c1cccc(NS(C)(=O)=O)c1 [Compound 79]
1000 to 10000 nM | 1000 to 10000 nM | 500 to 1000 nM | 1000 to 10000 nM | 1000 to 10000 nM | 1 to 10 µM | C[C@H](NC(=O)c1c(N)nn2cccnc12)c1cc2cccc(Cl)c2c(=O)n1-c1ccc(S(C)(=O)=O)cc1 [Compound 80]
1000 to 10000 nM | 500 to 1000 nM | 100 to 500 nM | 1000 to 10000 nM | 1000 to 10000 nM | 1 to 10 µM | C[C@H](NC(=O)c1c(N)nn2cccnc12)c1cc2cccc(Cl)c2c(=O)n1-c1ccc(NS(C)(=O)=O)cc1 [Compound 81]
1000 to 10000 nM | 1000 to 10000 nM | 10 to 100 nM | 10 to 100 nM | 500 to 1000 nM | 1 to 10 µM | Cc1ccnc2c(C(=O)N[C@@H](C)c3cc4cccc(Cl)c4c(=O)n3-c3ccccc3)c(N)nn12 [Compound 82]
1000 to 10000 nM | 1000 to 10000 nM | 1000 to 10000 nM | 500 to 1000 nM | 1000 to 10000 nM | 1 to 10 µM | C[C@H](NC(=O)c1c(N)nn2cccnc12)c1cc2cccc(Cl)c2c(=O)n1-c1ccccc1S(C)(=O)=O [Compound 83]
500 to 1000 nM | 100 to 500 nM | 10 to 100 nM | 10 to 100 nM | 100 to 500 nM | 1 to 10 µM | C[C@H](NC(=O)c1c(N)nn2cccnc12)c1cc2cccc(Cl)c2c(=O)n1-c1ccccc1F [Compound 84]
500 to 1000 nM | 500 to 1000 nM | 100 to 500 nM | 10 to 100 nM | 100 to 500 nM | 1 to 10 µM | COc1ccccc1-n1c([C@H](C)NC(=O)c2c(N)nn3cccnc23)cc2cccc(Cl)c2c1=O [Compound 85]
1000 to 10000 nM | 1000 to 10000 nM | 1000 to 10000 nM | 100 to 500 nM | 1000 to 10000 nM | 1 to 10 µM | C[C@H](NC(=O)c1c(N)nn2cccnc12)c1cc2cccc(OCC(F)(F)F)c2c(=O)n1-c1ccccc1 [Compound 86]
1000 to 10000 nM | 1000 to 10000 nM | 100 to 500 nM | 100 to 500 nM | 1000 to 10000 nM | 1 to 10 µM | C[C@H](NC(=O)c1c(N)nn2cccnc12)c1nc2c(Cl)cccc2c(=O)n1-c1ccccc1 [Compound 87]
500 to 1000 nM | 1000 to 10000 nM | 100 to 500 nM | 10 to 100 nM | 500 to 1000 nM | 1 to 10 µM | CC(=O)Cc1cccc2nc([C@H](C)NC(=O)c3c(N)nn4cccnc34)n(-c3ccccc3)c(=O)c12 [Compound 89]
1000 to 10000 nM | 1000 to 10000 nM | 1000 to 10000 nM | 500 to 1000 nM | 1000 to 10000 nM | 1 to 10 µM | C[C@H](NC(=O)c1c(N)nn2cccnc12)c1nc2cccc(N3CCOCC3)c2c(=O)n1-c1ccccc1 [Compound 90]
1000 to 10000 nM | 1000 to 10000 nM | 100 to 500 nM | 10 to 100 nM | 500 to 1000 nM | 1 to 10 µM | C[C@H](NC(=O)c1c(N)nn2cccnc12)c1nc2cccc(Cl)c2c(=O)n1-c1ccc(F)c(F)c1 [Compound 91]
1000 to 10000 nM | 1000 to 10000 nM | 100 to 500 nM | 100 to 500 nM | 1000 to 10000 nM | 1 to 10 µM | Cc1cccc2c(=O)n(-c3ccccc3)c([C@H](C)NC(=O)c3c(N)nn4cccnc34)nc12 [Compound 92]
1000 to 10000 nM | 1000 to 10000 nM | 500 to 1000 nM | 100 to 500 nM | 1000 to 10000 nM | 1 to 10 µM | C[C@H](NC(=O)c1c(N)nn2cccnc12)c1cc2cccc(CC(=O)C(C)(C)C)c2c(=O)n1-c1ccccc1 [Compound 94]
500 to 1000 nM | 1000 to 10000 nM | 10 to 100 nM | 10 to 100 nM | 100 to 500 nM | 1 to 10 µM | C[C@H](NC(=O)c1c(N)nn2cccnc12)c1nc2ccccc2c(=O)n1-c1ccccc1 [Compound 95]
1000 to 10000 nM | 1000 to 10000 nM | 100 to 500 nM | 100 to 500 nM | 1000 to 10000 nM | 1 to 10 µM | C[C@H](NC(=O)c1c(N)nn2cccnc12)c1oc2ccc(F)cc2c(=O)c1-c1ccccc1 [Compound 96]

Reference: patent US9751888B2, “Heterocyclic compounds and uses thereof” (Infinity Pharmaceuticals, Inc., priority 2013, dated 2017)
